Results on 25 compounds are retold here after PubChem BioAssay AID330 (DTP/NCI, 2004).

This assay has as its system P388 leukemia ip, CD2F1 mice, survival T/C. Kind of assay: NCI In Vivo Anticancer Drug Screen. Data for tumor model P388 Leukemia (intraperitoneal) in CD2F1 (CDF1) mice. The settings on record: endpoint: median survival time, higher = longer survival. In short, it runs like this:
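Mice carrying the transplanted tumor received test compound or vehicle. Survival was recorded in each group, and the value is the treated-group measurement divided by that of the vehicle-treated control group.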

Setting [1] is: dose: 60.0 mg/kg/injection, schedule: Q01DX005 (ip), vehicle: saline with Tween-80.
[2] abbreviates: dose: 120.0 mg/kg/injection, schedule: Q01DX005 (ip), vehicle: saline with Tween-80.
Where [3] appears, read: dose: 240.0 mg/kg/injection, schedule: Q01DX005 (ip), vehicle: saline with Tween-80.
The mark [4] stands for this setting: dose: 50.0 mg/kg/injection, schedule: Q01DX009 (ip), vehicle: saline with Tween-80.
The mark [5] stands for this setting: dose: 100.0 mg/kg/injection, schedule: Q01DX009 (ip), vehicle: saline with Tween-80.
[6] abbreviates: dose: 200.0 mg/kg/injection, schedule: Q01DX009 (ip), vehicle: saline with Tween-80.
The mark [7] stands for this setting: dose: 50.0 mg/kg/injection, schedule: Q01DX005 (ip), vehicle: Klucel (hydroxypropylcellulose) (HPC).
[8] abbreviates: dose: 100.0 mg/kg/injection, schedule: Q01DX005 (ip), vehicle: Klucel (hydroxypropylcellulose) (HPC).
Setting [9] is: dose: 200.0 mg/kg/injection, schedule: Q01DX005 (ip), vehicle: Klucel (hydroxypropylcellulose) (HPC).
Where [10] appears, read: dose: 50.0 mg/kg/injection, schedule: Q01DX009 (ip), vehicle: Klucel (hydroxypropylcellulose) (HPC).
Setting [11] is: dose: 100.0 mg/kg/injection, schedule: Q01DX009 (ip), vehicle: Klucel (hydroxypropylcellulose) (HPC).
The mark [12] stands for this setting: dose: 200.0 mg/kg/injection, schedule: Q01DX009 (ip), vehicle: Klucel (hydroxypropylcellulose) (HPC).

Several values for one entry are separate records, joined by “and”; a condition that tells them apart may be missing. Equal values may be shown once. Toxic doses and inconclusive results are not listed.

`CN(C)C(=O)Oc1c(Cc2ccccc2)c(=O)n2c([nH]c3ccccc32)c1C#N`: the T/C was 89 % of control under setting [1] and 92 % of control under setting [2].

Consider `CCC[C@H]1N=C(OCC)N[C@@H]1CCC`, for which the T/C by setting is: (dose: 6.25 mg/kg/injection, schedule: Q01DX005 (ip), vehicle: Klucel (hydroxypropylcellulose) (HPC)) 108 % of control; (dose: 12.5 mg/kg/injection, schedule: Q01DX005 (ip), vehicle: Klucel (hydroxypropylcellulose) (HPC)) 117 % of control.

For `COc1ccc(N=Nc2ccc(N)c3cccnc23)c(OC)c1`, the T/C is, setting by setting: (dose: 100.0 mg/kg/injection, schedule: Q04DX002 (ip), vehicle: saline with Tween-80) 97 % of control; (dose: 200.0 mg/kg/injection, schedule: Q04DX002 (ip), vehicle: saline with Tween-80) 106 % of control; (dose: 400.0 mg/kg/injection, schedule: Q04DX002 (ip), vehicle: saline with Tween-80) 92 % of control.

With `C=C(N=[N+]=[N-])c1ccccc1`, the T/C by setting is: (dose: 6.25 mg/kg/injection, schedule: Q01DX009 (ip), vehicle: other) 101 % of control; (dose: 12.5 mg/kg/injection, schedule: Q01DX009 (ip), vehicle: other) 106 % of control; (dose: 25.0 mg/kg/injection, schedule: Q01DX009 (ip), vehicle: other) 112 % of control; (dose: 50.0 mg/kg/injection, schedule: Q01DX009 (ip), vehicle: other) 117 % of control; (dose: 100.0 mg/kg/injection, schedule: Q01DX009 (ip), vehicle: other) 107 % of control.

With `Cc1nc(N(C)C)oc(=O)c1Cc1ccccc1`, the T/C under setting [1] was 102 % of control, the T/C under setting [2] was 100 % of control and the T/C under setting [3] was 100 % of control.

`CCCCC(=O)N/N=C(\C)[C@]1(O)Cc2c(O)c3c(c(O)c2[C@@H](OC2CC(N)C(O)C(C)O2)C1)C(=O)c1c(OC)cccc1C3=O` (some centres undefined): the T/C runs as follows: (dose: 0.12 mg/kg/injection, schedule: Q01DX009 (ip), vehicle: water) 117 % of control; (dose: 0.25 mg/kg/injection, schedule: Q01DX009 (ip), vehicle: water) 122 % of control; (dose: 0.5 mg/kg/injection, schedule: Q01DX009 (ip), vehicle: water) 155 % of control; (dose: 1.0 mg/kg/injection, schedule: Q01DX009 (ip), vehicle: water) 190 % of control; (dose: 2.0 mg/kg/injection, schedule: Q01DX009 (ip), vehicle: water) 180 % of control and 190 % of control; (dose: 4.0 mg/kg/injection, schedule: Q01DX009 (ip), vehicle: water) 195 % of control and 238 % of control. Also, the T/C (dose: 8.0 mg/kg/injection, schedule: Q01DX009 (ip), vehicle: water) was 152 % of control and 247 % of control.

`COc1ccc2nc3cc(Cl)ccc3c(SCC(=O)OCC(=O)[C@@]3(O)CC[C@H]4[C@@H]5CCC6=CC(=O)C=C[C@]6(C)[C@H]5C(=O)C[C@@]43C)c2c1`: the T/C (dose: 50.0 mg/kg/injection, schedule: Q01DX009 (ip), vehicle: saline) is 118 % of control; the T/C (dose: 100.0 mg/kg/injection, schedule: Q01DX009 (ip), vehicle: saline) was 108 % of control; the T/C (dose: 200.0 mg/kg/injection, schedule: Q01DX009 (ip), vehicle: saline) was 110 % of control.

`CCCC(=O)Nc1ncc([N+](=O)[O-])s1`: the T/C was 95 % of control under setting [4], 100 % of control under setting [5] and 90 % of control under setting [6].

With `CC(=O)c1cccc2cccc([N+](=O)[O-])c12`, the T/C by setting is: under setting [5], 104 % of control; under setting [6], 90 % of control; (dose: 400.0 mg/kg/injection, schedule: Q01DX009 (ip), vehicle: saline with Tween-80) 104 % of control.

In the case of `CCC(NN)C(=O)OCc1ccccc1` (centres undefined), the T/C under setting [7] was 97 % of control, the T/C under setting [8] was 95 % of control and the T/C under setting [9] is 103 % of control.

For the compound `CCO[Si](CCCCl)(OCC)OCC`, the T/C is, setting by setting: under setting [10], 100 % of control; under setting [11], 106 % of control; under setting [12], 118 % of control.

Consider `CC1(C)O[Se](=O)OC1(C)C`, for which the T/C by setting is: (dose: 1.56 mg/kg/injection, schedule: Q04DX003 (ip), vehicle: saline) 103 % of control; (dose: 3.12 mg/kg/injection, schedule: Q04DX003 (ip), vehicle: saline) 98 % of control; (dose: 6.25 mg/kg/injection, schedule: Q04DX003 (ip), vehicle: saline) 90 % of control.

With `Nc1nc(SN=Nc2ccc(S(N)(=O)=O)cc2)c2[nH]cnc2n1`, the T/C was 118 % of control (dose: 7.5 mg/kg/injection, schedule: Q01DX009 (ip), vehicle: saline) and 100 % of control (dose: 15.0 mg/kg/injection, schedule: Q01DX009 (ip), vehicle: saline).

`CCCCP(=O)(CCCC)CCCC.CCCCP(=O)(CCCC)CCCC.CCCCP(=O)(CCCC)CCCC.CCCCP(=O)(CCCC)CCCC.[Mn+2].[O-][Cl+3]([O-])([O-])O`: the T/C (dose: 50.0 mg/kg/injection, schedule: Q01DX009 (ip), vehicle: saline + Tween-80 + alcohol) was 101 % of control; the T/C under setting [4] was 104 % of control; the T/C (dose: 100.0 mg/kg/injection, schedule: Q01DX009 (ip), vehicle: saline + Tween-80 + alcohol) was 116 % of control; the T/C under setting [5] was 119 % of control; the T/C (dose: 200.0 mg/kg/injection, schedule: Q01DX009 (ip), vehicle: saline + Tween-80 + alcohol) was 122 % of control.

Regarding `CN(C)c1ccc2[nH]cc(C(=O)O)c(=O)c2c1`, the T/C by setting is: (dose: 7.5 mg/kg/injection, schedule: Q01DX005 (ip), vehicle: Klucel (hydroxypropylcellulose) (HPC)) 99 % of control; (dose: 15.0 mg/kg/injection, schedule: Q01DX005 (ip), vehicle: Klucel (hydroxypropylcellulose) (HPC)) 102 % of control; (dose: 30.0 mg/kg/injection, schedule: Q01DX005 (ip), vehicle: Klucel (hydroxypropylcellulose) (HPC)) 102 % of control.

With `Cc1nn2cc(-c3ccc4ccccc4c3)nc2[nH]c1=O`, the T/C by setting is: (dose: 100.0 mg/kg/injection, schedule: Q01DX001 (ip), vehicle: Klucel (hydroxypropylcellulose) (HPC)) 100 % of control; (dose: 200.0 mg/kg/injection, schedule: Q01DX001 (ip), vehicle: Klucel (hydroxypropylcellulose) (HPC)) 99 % of control; (dose: 400.0 mg/kg/injection, schedule: Q01DX001 (ip), vehicle: Klucel (hydroxypropylcellulose) (HPC)) 100 % of control.

Consider `Cc1nn(C(=O)c2ccncc2)c(C)c1N=Nc1ccc(S(=O)(=O)N=C(N)N)cc1`, for which the T/C under setting [10] was 97 % of control, the T/C under setting [11] is 95 % of control and the T/C under setting [12] is 100 % of control.

With `CCOC(=O)c1c(C)n(O)c2ccc(Cl)cc2c1=O`, the T/C reads like this: under setting [10], 100 % of control; under setting [11], 102 % of control; under setting [12], 104 % of control.

On to `Cc1cc(NC(=O)NCCOc2ccc(N3C(N)=NC(N)=NC3(C)C)cc2Cl)ccc1S(=O)(=O)F`, for which the T/C was 100 % of control (dose: 12.5 mg/kg/injection, schedule: Q04DX003 (ip), vehicle: saline sonified); 100 % of control (dose: 25.0 mg/kg/injection, schedule: Q04DX003 (ip), vehicle: saline sonified); 100 % of control (dose: 50.0 mg/kg/injection, schedule: Q04DX003 (ip), vehicle: saline sonified).

For the compound `C=C(C)c1c(C)nc2c(N)nc(N)[n+]([O-])c2[n+]1[O-]`, the T/C was 108 % of control (dose: 37.5 mg/kg/injection, schedule: Q01DX009 (ip), vehicle: saline); 118 % of control (dose: 75.0 mg/kg/injection, schedule: Q01DX009 (ip), vehicle: saline); 101 % of control (dose: 150.0 mg/kg/injection, schedule: Q01DX009 (ip), vehicle: saline).

Turning to `OCc1c(-c2ccc(Cl)cc2)c(-c2ccccc2)c2n1CCC2`, the T/C is 94 % of control under setting [7], 91 % of control under setting [8] and 92 % of control under setting [9].

On to `CN1C2=NC(=O)NC(=O)C23OC3c2ccccc21` (centres undefined) (tested in a mixture with another compound), for which the T/C reads like this: under setting [7], 102 % of control; under setting [8], 103 % of control.

`Cc1cc(C)nc(NCCCCCCCCNc2nc(C)cc(C)n2)n1`: the T/C runs as follows: under setting [7], 91 % of control; under setting [8], 96 % of control; under setting [9], 90 % of control.

For `Nc1ccc(Cn2ccnn2)cc1`, the T/C by setting is: under setting [1], 100 % of control; under setting [2], 95 % of control; under setting [3], 101 % of control.

With `Cc1ccc(NC(=O)Oc2cc(C)c(I)cc2C)cc1Cl`, the T/C is 112 % of control under setting [4], 112 % of control under setting [5] and 95 % of control under setting [6].
